Test results reported in patent US20210085711A1 (Japan Tobacco Inc., priority 2017, published 2021).

Tested on: patients with hypermenorrhea and/or patients with hypermenorrhea-associated gynecologic diseases (iron-deficiency anemia patients)
Assay: Phase II clinical trial of JTT-751: serum ferritin value
Format: in vivo, human
Protocol: This test was a three-stage safety and efficacy clinical trial at multi-facilities. The first stage was a pre-observation period (Day −40 to Day −1), the second stage was an administration period (Day 1 to Day 48) (efficacy and safety evaluation period), and the third stage was a post-observation period (Day 49 to Day 63) (efficacy and safety evaluation period). The safety evaluation and efficacy evaluation were performed by multi-facility collaboration, placebo control, random allocation, double-blind trial, and parallel group comparison test.
(1) Japanese patients who are 20 or more and less than 65 years old at the time of agreement and can visit an outpatient clinic (2) Patients who have an Hb value (measured using HemoCue® Hb 201 DM analyzer in the institute of clinical practice) of 7.0 g/dL or more and less than 11.0 g/dL on both the observation start date and Week 0, and the difference between the two days is 1.0 g/dL or less (3) Patients with a TIBC of 360 μg/dL or more or a serum ferritin value of less than 12 ng/mL on the observation start date
The administration period of the trial drug is seven weeks which starts from the next day of the Week 0 visit to the day before the Week 7 visit, provided that the trial drug is not taken on the scheduled Week 3 visit.
(2) Subsidiary evaluation items 1) Erythrocyte-related examination values and amount of change from Week 0 at each observation date 2) Iron-related test values and amount of change from Week 0 at each observation date 3) Achievement rate of target Hb value (female; 12.0 g/dL or more, male; 13.0 g/dL or more) at each observation date 4) Achievement rate of 1.0 g/dL or more and achievement rate of 2.0 g/dL or more in Hb value improvement from Week 0 at each observation date 5) Average daily change of Hb value from Week 0 to each observation date
The blood hemoglobin value (Hb), the serum iron level, the serum ferritin value, the total iron-binding capacity (TIBC) and the transferrin saturation rate (TSAT), and the mean corpuscular volume (MCV) were each examined at the observation start date, Week 0, Week 3, Week 7, the end of administration and the consultation at nine weeks after Week 0; the hepcidin concentration (Hepcidin 25) and the serum soluble transferrin receptor concentration (sTfR) were each examined on Week 0, Week 3 and Week 7 and at the end of administration; and the C-terminal FGF23 value (cFGF23) and the intact FGF23 value (iFGF23) were each examined on Week 0 and Week 7 and at the end of administration.

[1] = 250 mg/day, 9 weeks after Week 0
[2] = 250 mg/day, End of administration
[3] = 250 mg/day, Week 3 (Week 0 not given)
[4] = 500 mg/day, 9 weeks after Week 0
[5] = 500 mg/day, End of administration
[6] = 500 mg/day, Week 3 (Week 0 not given)
[7] = 1000 mg/day, 9 weeks after Week 0
[8] = 1000 mg/day, End of administration
[9] = 1000 mg/day, Week 3 (Week 0 not given)
[10] = 1500 mg/day, 9 weeks after Week 0
[11] = 1500 mg/day, End of administration
[12] = 1500 mg/day, Week 3 (Week 0 not given)

## Ferric citrate [JTT-751]
[1]
  Ferritin, Mean: 2.88 ng/mL
  Ferritin, Median: 2.60 ng/mL
[2]
  Ferritin, Mean: 11.38 ng/mL
  Ferritin, Median: 11.45 ng/mL
[3]
  Ferritin, Mean: 11.16 ng/mL
  Ferritin, Median: 7.70 ng/mL
250 mg/day, Week 7
  Ferritin, Mean: 11.38 ng/mL
  Ferritin, Median: 11.45 ng/mL
[4]
  Ferritin, Mean: 4.28 ng/mL
  Ferritin, Median: 3.60 ng/mL
[5]
  Ferritin, Mean: 16.12 ng/mL
  Ferritin, Median: 14.30 ng/mL
[6]
  Ferritin, Mean: 15.26 ng/mL
  Ferritin, Median: 12.40 ng/mL
500 mg/day, Week 7
  Ferritin, Mean: 16.12 ng/mL
  Ferritin, Median: 14.30 ng/mL
[7]
  Ferritin, Mean: 7.51 ng/mL
  Ferritin, Median: 7.20 ng/mL
[8]
  Ferritin, Mean: 17.02 ng/mL
  Ferritin, Median: 16.30 ng/mL
[9]
  Ferritin, Mean: 26.96 ng/mL
  Ferritin, Median: 23.20 ng/mL
1000 mg/day, Week 7
  Ferritin, Mean: 17.02 ng/mL
  Ferritin, Median: 16.30 ng/mL
[10]
  Ferritin, Mean: 5.83 ng/mL
  Ferritin, Median: 5.35 ng/mL
[11]
  Ferritin, Mean: 17.38 ng/mL
  Ferritin, Median: 16.60 ng/mL
[12]
  Ferritin, Mean: 20.43 ng/mL
  Ferritin, Median: 22.20 ng/mL
1500 mg/day, Week 7
  Ferritin, Mean: 17.38 ng/mL
  Ferritin, Median: 16.60 ng/mL
Continuous administration from Week 0 to Week 3
  serum ferritin value (printed: serum iron level), increased to a normal value: 12 to 30 ng/mL
